Measured values as given in PMC6013238, “Development of novel NEMO-binding domain mimetics for inhibiting IKK/NF-κB activation” (PLoS Biology, 2018).
Where “and” joins values, the source holds several entries; their conditions need not be identical. Equal values may be shown once.

Legend:
HEK293 cells = conditions: Fig 2D; 100 μM, 24 h
Experimental: (A) HEK293 cells stably expressing NF-κB luciferase reporter were pretreated with indicated small molecules at 100 μM for 30 min, followed by stimulation with TNF-α (10 ng/ml) for 3 h. Luciferase activity was normalized to untreated stimulated control cells. […] (B) The dose-dependent response of ZINC12909780 was tested by NF-κB luciferase assay in HEK293 cells. Three independent experiments were performed, and data shown represent mean +/− SD. […] (D) HEK293 cells were cultured in the presence of 100 μM of indicated derivatives for 24 h, and cell survival was determined by MTT assay. Cell viability was calculated by normalizing to untreated cells. (E) Dose-dependent inhibitory effects were determined for ZINC5 at 0, 25, 50, and 100 μM by using NF-κB luciferase assay. (F) HEK293 were cultivated in the presence of ZINC5 at listed concentrations for 24 h, and cell survival was assessed by MTT assay. Data represent the mean +/− SD from 4–5 independent experiments. *P < 0.05; **P < 0.01; ***P < 0.001. Underlying data can be found in S1 Data. HEK293, human embryonic kidney 293 cells; MTT, 3-(4,5-dimethylthiazol-2-yl)-2,5-dephenyltetrazolium bromide colormetric assay for assessing cell metabolic activity; NF-κB, nuclear factor κB; TNF-α; tumor necrosis factor α; SD, standard deviation.
HEK293 cells were grown in a 96-well plate at 3 × 10^4 cells/well in triplicate and treated with DMSO or listed small molecules at indicated concentrations for 24 h. Cell survival was determined by adding 20 μl of 5 mg/ml MTT (thiazolyl blue tetrazolium bromide) to each well, followed by incubation in 37 °C for 3 h. Media were removed, and purple formazan was dissolved in 100 uL of DMSO. Absorbance was measured at 590 nm on a microplate reader (PerkinElmer, Waltham, MA). Cell viability was calculated by normalizing values to untreated controls.

mdx mice = assay: Chronic treatment of mdx mice, qRT-PCR of eMyHC and Pax7 in TA muscle; assay type: in vivo, mouse; conditions: Fig 7D, SR 30 mg/kg, 8K-NBD 10 mg/kg, 4 wk, single mice
Excerpt: Fig 7 NBD mimetics improve muscular pathology and grip strength in mdx mice. (A) Shown is the treatment regimen with NBD mimetics in mdx mice. (B) Hematoxylin–eosin staining of TA muscle from 7-wk-old, treated or untreated mdx mice. Images were taken at magnification of 20×. Representative images were shown for each treatment group. […] (E) TA muscle from 7-wk-old, treated or untreated mdx mice was stained with laminin by IHC to outline myofibers. Overall images of TA muscle were shown on the left side, and the inset panel images were shown on the right side. (F) Quantitation of minimum Feret diameter in centrally and noncentrally nucleated myofibers. (G) Forelimb force determined by grip strength test. […] Underlying data can be found in S1 Data. eMyHC, embryonic myosin heavy chain; IHC, immunohistochemistry; NBD, NEMO-binding domain; NEMO, NF-κB essential modulator; Pax7, paired box protein 7; qRT-PCR, quantitative real-time polymerase chain reaction; TA, tibialis anterior.
To determine whether SR12343 and SR12460 improve muscle pathology, TA muscle was stained with hematoxylin–eosin to assess inflammatory infiltration, necrosis, central nucleation, and fibrosis. […] To further quantitate the extent of inflammation in mdx muscle tissues, diaphragm and TA muscle were immunostained for cluster of differentiation 68 (CD68), a macrophage marker. […]

| SMILES | Cell viability normalized to untreated cells (MTT) (HEK293 cells) | Pax7 mRNA in TA muscle (qRT-PCR) (mdx mice) |
| --- | --- | --- |
| O=C(COC(=O)Cc1ccccc1F)Nc1ccc(Cl)cn1 [ZINC5] | 95 and 80 and 84 and 81 | – |
| O=C(CNc1ccc(Cl)cn1)NCCc1cccc(Br)c1 [SR12343] | – | 1.512 and 1.485 and 1.5466 and 1.253 and 1.1889 and 1.394 |
